Assay results from PubChem BioAssay AID2060900 (Molecular Pharmacology Branch, DTP, NCI, 2025).

Tested on: 521955-158-R2-J5-PDC complex spheroids, viability
Assay: Anticancer human tumor 521955-158-R2-J5-PDC patient-derived pancreatic carcinoma cell line growth inhibition [RAS]
Settings: for viability, T/C: stronger effect = lower value
In short: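 Agents were tested in combination matrices in half-log decrements from a top concentration at or near clinical Cmax (10 microM if undetermined). Targets were multi-cell spheroids of tumour lines plus HUVEC and MSC stromal cells.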
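Also: compound exposure lasted seven days before the viability read.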
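For viability, T/C in this document: spheroids also contain HUVEC endothelial cells and mesenchymal stem cells as stroma.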

In the case of `CCN1CCN(Cc2ccc(Nc3ncc(F)c(-c4cc(F)c5nc(C)n(C(C)C)c5c4)n3)nc2)CC1` + C=CC(=O)N1CCN(c2nc(OCC3CCCN3C)nc3c(F)c(-c4nc(N)cc(C)c4C(F)(F)F)c(Cl)cc23)C(C)C1, the IC50 (curve of first compound, second compound 0.00316 µM) is reported as > 1000 nM, the IC50 (curve of first compound, second compound 0.01 µM) is reported as > 1000 nM and the IC50 (curve of first compound, second compound 0.0316 µM) is reported as > 1000 nM. The IC50 (curve of first compound, second compound 0.1 µM) was > 1000 nM, the IC50 (curve of first compound, second compound 0.316 µM) was > 1000 nM and the IC50 (curve of first compound, second compound 1 µM) was > 1000 nM. It also gave a viability, T/C (second compound 0.00316 µM, first compound 0.00316 µM) of 121%, a viability, T/C (second compound 0.00316 µM, first compound 0.01 µM) of 89.3% and a viability, T/C (second compound 0.00316 µM, first compound 0.0316 µM) of 85.3%. For the same molecule, the viability, T/C (second compound 0.00316 µM, first compound 0.1 µM) was 85.2%, the viability, T/C (second compound 0.00316 µM, first compound 0.316 µM) was 140% and the viability, T/C (second compound 0.00316 µM, first compound 1 µM) was 102%. For the same molecule, the viability, T/C (second compound 0.01 µM, first compound 0.00316 µM) was 87.2%, the viability, T/C (second compound 0.01 µM, first compound 0.01 µM) was 126% and the viability, T/C (second compound 0.01 µM, first compound 0.0316 µM) was 76.5%. For the same molecule, the viability, T/C (second compound 0.01 µM, first compound 0.1 µM) was 120%, the viability, T/C (second compound 0.01 µM, first compound 0.316 µM) was 104% and the viability, T/C (second compound 0.01 µM, first compound 1 µM) was 108%. It also gave a viability, T/C (second compound 0.0316 µM, first compound 0.00316 µM) of 101%, a viability, T/C (second compound 0.0316 µM, first compound 0.01 µM) of 148% and a viability, T/C (second compound 0.0316 µM, first compound 0.0316 µM) of 88.9%. It also gave a viability, T/C (second compound 0.0316 µM, first compound 0.1 µM) of 110%, a viability, T/C (second compound 0.0316 µM, first compound 0.316 µM) of 93.6% and a viability, T/C (second compound 0.0316 µM, first compound 1 µM) of 98.4%. The viability, T/C (second compound 0.1 µM, first compound 0.00316 µM) was 147%, the viability, T/C (second compound 0.1 µM, first compound 0.01 µM) was 103% and the viability, T/C (second compound 0.1 µM, first compound 0.0316 µM) was 115%. It also gave a viability, T/C (second compound 0.1 µM, first compound 0.1 µM) of 110%, a viability, T/C (second compound 0.1 µM, first compound 0.316 µM) of 108% and a viability, T/C (second compound 0.1 µM, first compound 1 µM) of 112%. It also gave a viability, T/C (second compound 0.316 µM, first compound 0.00316 µM) of 145%, a viability, T/C (second compound 0.316 µM, first compound 0.01 µM) of 109% and a viability, T/C (second compound 0.316 µM, first compound 0.0316 µM) of 80.9%. For the same molecule, the viability, T/C (second compound 0.316 µM, first compound 0.1 µM) was 96.4%, the viability, T/C (second compound 0.316 µM, first compound 0.316 µM) was 107% and the viability, T/C (second compound 0.316 µM, first compound 1 µM) was 97.6%. It also gave a viability, T/C (second compound 1 µM, first compound 0.00316 µM) of 120%, a viability, T/C (second compound 1 µM, first compound 0.01 µM) of 92% and a viability, T/C (second compound 1 µM, first compound 0.0316 µM) of 81.8%. The viability, T/C (second compound 1 µM, first compound 0.1 µM) was 75.6%, the viability, T/C (second compound 1 µM, first compound 0.316 µM) was 93.5% and the viability, T/C (second compound 1 µM, first compound 1 µM) was 100%.

For `Nc1ccn(C2OC(CO)C(O)C2(F)F)c(=O)n1` (stereo unspecified), the viability, T/C (compound 0.00316 µM) was 101% [middle of 4 runs], the viability, T/C (compound 0.01 µM) was 79% [middle of 4 runs] and the viability, T/C (compound 0.0316 µM) was 79.1% [middle of 4 runs]. For the same molecule, the viability, T/C (compound 0.1 µM) was 72.9% [middle of 4 runs], the viability, T/C (compound 0.316 µM) was 36.5% [middle of 4 runs] and the viability, T/C (compound 1 µM) was 16.2% [middle of 4 runs]. The IC50 (curve of compound) was 183 nM [middle of 4 runs].

With `Cc1nc(N2CCC3(CC2)COC(C)C3N)c(CO)nc1Sc1ccnc(N)c1Cl` (stereo unspecified) + CCn1c(-c2cc(N3CCN(C)CC3)cnc2C(C)OC)c2c3cc(ccc31)-c1csc(n1)CC(NC(=O)C1CC1C)C(=O)N1CCCC(N1)C(=O)OCC(C)(C)C2 the IC50 (curve of first compound, second compound 0.000949 µM) was < 31.6 nM, the IC50 (curve of first compound, second compound 0.003 µM) was < 31.6 nM and the IC50 (curve of first compound, second compound 0.00949 µM) was < 31.6 nM. For the same molecule, the IC50 (curve of first compound, second compound 0.03 µM) was < 31.6 nM, the IC50 (curve of first compound, second compound 0.0949 µM) was < 31.6 nM and the IC50 (curve of first compound, second compound 0.3 µM) was < 31.6 nM. It also gave a viability, T/C (second compound 0.000949 µM, first compound 0.0316 µM) of 39.5%, a viability, T/C (second compound 0.000949 µM, first compound 0.1 µM) of 31% and a viability, T/C (second compound 0.000949 µM, first compound 0.316 µM) of 32.7%. For the same molecule, the viability, T/C (second compound 0.000949 µM, first compound 1 µM) was 39.2%, the viability, T/C (second compound 0.000949 µM, first compound 3.16 µM) was 36.4% and the viability, T/C (second compound 0.000949 µM, first compound 10 µM) was 33.3%. It also gave a viability, T/C (second compound 0.003 µM, first compound 0.0316 µM) of 36.2%, a viability, T/C (second compound 0.003 µM, first compound 0.1 µM) of 40.7% and a viability, T/C (second compound 0.003 µM, first compound 0.316 µM) of 35.3%. The viability, T/C (second compound 0.003 µM, first compound 1 µM) was 31.3%, the viability, T/C (second compound 0.003 µM, first compound 3.16 µM) was 23.8% and the viability, T/C (second compound 0.003 µM, first compound 10 µM) was 20.9%. It also gave a viability, T/C (second compound 0.00949 µM, first compound 0.0316 µM) of 27.4%, a viability, T/C (second compound 0.00949 µM, first compound 0.1 µM) of 32.1% and a viability, T/C (second compound 0.00949 µM, first compound 0.316 µM) of 25%. The viability, T/C (second compound 0.00949 µM, first compound 1 µM) was 18.3%, the viability, T/C (second compound 0.00949 µM, first compound 3.16 µM) was 18.7% and the viability, T/C (second compound 0.00949 µM, first compound 10 µM) was 10.8%. For the same molecule, the viability, T/C (second compound 0.03 µM, first compound 0.0316 µM) was 15.9%, the viability, T/C (second compound 0.03 µM, first compound 0.1 µM) was 18.1% and the viability, T/C (second compound 0.03 µM, first compound 0.316 µM) was 12.8%. The viability, T/C (second compound 0.03 µM, first compound 1 µM) was 13.9%, the viability, T/C (second compound 0.03 µM, first compound 3.16 µM) was 11.8% and the viability, T/C (second compound 0.03 µM, first compound 10 µM) was 11.7%. The viability, T/C (second compound 0.0949 µM, first compound 0.0316 µM) was 14.3%, the viability, T/C (second compound 0.0949 µM, first compound 0.1 µM) was 11% and the viability, T/C (second compound 0.0949 µM, first compound 0.316 µM) was 15.1%. For the same molecule, the viability, T/C (second compound 0.0949 µM, first compound 1 µM) was 7.6%, the viability, T/C (second compound 0.0949 µM, first compound 3.16 µM) was 11.3% and the viability, T/C (second compound 0.0949 µM, first compound 10 µM) was 10.7%. For the same molecule, the viability, T/C (second compound 0.3 µM, first compound 0.0316 µM) was 9.07%, the viability, T/C (second compound 0.3 µM, first compound 0.1 µM) was 8.16% and the viability, T/C (second compound 0.3 µM, first compound 0.316 µM) was 8.08%. It also gave a viability, T/C (second compound 0.3 µM, first compound 1 µM) of 6.34%, a viability, T/C (second compound 0.3 µM, first compound 3.16 µM) of 7.5% and a viability, T/C (second compound 0.3 µM, first compound 10 µM) of 9.18%.
